Measurements published in article PMC7697888, “Comprehensive Set of Tertiary Complex Structures and Palmitic Acid Binding Provide Molecular Insights into Ligand Design for RXR Isoforms” (International Journal of Molecular Sciences, 2020).
Where two headings read alike, the source gives them in different places.

How the values were obtained:
[1] = biological target: T1, RXRα LBD (Homo sapiens, UniProt P19793); assay: HTRF-based SRC-1 co-activator recruitment assay; format: biochemical; settings: for EC50: HTRF; for competition with bexarotene in SRC-1 recruitment: titrated in the presence of 0.3 µM bexarotene
T1 construct: peptide to the RXRα LBD (aa 225–462) was studied
T1 sequence (P19793 225-462): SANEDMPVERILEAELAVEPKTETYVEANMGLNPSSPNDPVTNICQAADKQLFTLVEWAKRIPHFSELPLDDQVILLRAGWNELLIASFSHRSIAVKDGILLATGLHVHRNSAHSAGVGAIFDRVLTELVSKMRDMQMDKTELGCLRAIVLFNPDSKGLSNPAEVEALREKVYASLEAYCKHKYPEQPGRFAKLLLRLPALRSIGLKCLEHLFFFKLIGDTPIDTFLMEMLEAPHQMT
Text: To examine whether PA can act as a modulator that activates RXRs in solution, we next performed homogenous time-resolved fluorescence resonance energy transfer (HTRF)-based co-regulator recruitment assays using a peptide derived from steroid receptor co-activator 1 (SRC-1) as established previously. In addition to PA, we also tested the RXR modulator potentials of myristic acid (MA; C14:0; C14H28O2; […]) and stearic acid (SA; C18:0; C18H36O2; […]).
Terbium cryptate as streptavidin conjugate (Cisbio Bioassays, Codolet, France) was used as the fluorescence resonance energy transfer (FRET) donor and stably coupled via an N-terminal biotin to the SRC-1-derived peptide (biotin-[…]) (Eurogentec Deutschland GmbH, Cologne, Germany), which contains the co-activator consensus motif, LxxLL. Recombinant RXRα LBD fused to N-terminal superfolder green fluorescent protein (sGFP) served as the FRET acceptor. Coactivator recruitment by the RXRα LBD brings FRET donor and acceptor into close proximity, resulting in a gain in the FRET signal as indicator for binding. […] Fluorescence intensities (FI) at 520 nm (acceptor) and 620 nm (donor reference) after excitation at 340 nm were recorded on a Tecan Spark luminometer equipped with enhanced fluorescence module (Tecan) after 2 h of incubation at room temperature. To obtain dimensionless HTRF, FI520 nm was divided by FI620 nm and multiplied with 10,000. The recruitment of the SRC-1-derived peptide to the RXRα LBD was validated with increasing concentrations of SR11237.

[2] = biological target: T2, RXRα (Homo sapiens, UniProt P19793); assay: Gal4 hybrid reporter gene assay RXRα; format: cell-based; settings: HEK293T; at 100 µM concentrations and above
T2 construct: pFA-CMV-hRXRα-LBD (NR2B1, UniProt entry: P19793, aa 225–462); expressed in transfected cells; host or cells: HEK293T
T2 sequence (P19793 225-462): T1 sequence (P19793 225-462)
Protocol: (§1) The Gal4 hybrid reporter gene assays for RXRα, RXRβ and RXRγ were performed as described previously using the Gal4-fusion receptor plasmids pFA-CMV-hRXRα-LBD (NR2B1, UniProt entry: P19793, aa 225–462), pFA-CMV-hRXRβ-LBD (NR2B2, UniProt entry: P28702-1, aa 294–533) and pFA-CMV-hRXRγ-LBD (NR2B3, UniProt entry: P48443-1, aa 229–463), which code for the hinge region and LBD of the canonical RXR isoform. pFR-Luc (Stratagene, San Diego, CA, USA) as the reporter plasmid and pRL-SV40 (Promega, Madison, WI, USA) as the internal control were used. HEK293T cells were grown in DMEM high-glucose medium (supplemented with 10% fetal calf serum (FCS), sodium pyruvate (1 mM), penicillin (100 U/mL) and streptomycin (100 μg/mL)) at 37 °C and 5% CO2, and seeded in 96-well plates (3.0 × 10^4 cells/well) on the day before transfection. Right before transfection, medium was changed to Opti-MEM without supplements and cells were transiently transfected using the Lipofectamine LTX reagent (Invitrogen, Carlsbad, CA, USA) according to the manufacturer’s protocol with pFR-Luc (Stratagene), pRL-SV40 (Promega) and the respective pFA-CMV-hRXR-LBD clone. After 5 h of incubation, medium was changed to Opti-MEM (supplemented with penicillin (100 U/mL) and streptomycin (100 μg/mL)) additionally containing 0.1% DMSO and the respective test compounds or 0.1% DMSO alone as the untreated control. After overnight incubation (12–14 h), cells were assayed for luciferase activity using the Dual-Glo luciferase assay system (Promega) according to the manufacturer’s protocol on a Tecan Spark M10 luminometer (Tecan Deutschland GmbH, Crailsheim, Germany). Each sample was tested in at least three biologically independent repeats in duplicates. Data were normalized for transfection efficiency and cell growth by division of firefly luciferase data by Renilla luciferase data and multiplying by 1000 to obtain relative light units (RLUs). Fold activation denotes the mean RLU of test compounds at a respective concentration divided by the mean RLU of untreated control. […]

[3] = biological target: T3, RXRβ (Homo sapiens, UniProt P28702); assay: Gal4 hybrid reporter gene assay RXRβ; format: cell-based; settings: HEK293T; at 100 µM concentrations and above
T3 construct: pFA-CMV-hRXRβ-LBD (NR2B2, UniProt entry: P28702-1, aa 294–533); expressed in transfected cells; host or cells: HEK293T
T3 sequence (P28702 294-533): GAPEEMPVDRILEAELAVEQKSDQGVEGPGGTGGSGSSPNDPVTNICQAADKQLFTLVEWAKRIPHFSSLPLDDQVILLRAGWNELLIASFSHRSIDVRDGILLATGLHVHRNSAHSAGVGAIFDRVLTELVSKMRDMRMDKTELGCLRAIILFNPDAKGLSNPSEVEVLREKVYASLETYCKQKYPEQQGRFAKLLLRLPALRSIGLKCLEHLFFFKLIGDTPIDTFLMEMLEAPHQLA
Protocol: as §1

[4] = cell-free, compound alone, read-out: EC50 SRC-1 recruitment to RXRα
[5] = in the presence of 0.3 µM bexarotene, read-out: EC50 SRC-1 recruitment to RXRα in the presence of 0.3 µM bexarotene

Structure (SMILES)	EC50 ([1]; EC50 SRC-1 recruitment to RXRα in the presence of 0.3 µM bexarotene, in the presence of 0.3 µM bexarotene) [µM]	EC50 [1, 4] [µM]	competition with bexarotene in SRC-1 recruitment [1]	RXRα activation in Gal4 hybrid reporter gene assay [2]	RXRβ activation in Gal4 hybrid reporter gene assay [3]	EC50 [1, 5] [µM]
CCCCCCCCCCCCCC(=O)O [MA, myristic acid]	2.9	3.2	no competition	activated	activated	
CCCCCCCCCCCCCCCC(=O)O [PA, palmitic acid]		6.6	no competition	activated	activated	3.1
CCCCCCCCCCCCCCCCCC(=O)O [SA, stearic acid]		19	no competition	activated	activated	14
